Series [1] concerns Hepatitis B virus. Nature of the series: Antiviral activity against Hepatitis B virus infected in human HepG2.2.15 cells assessed as inhibition of viral DNA replication at 1 uM measured after 6 days by FQ-PCR analysis relative to control. The settings on record: time 6 day, 144 h, 1 µM. The class given is functional, HepG2 2.2.15. Set-up: scale not given: the % may be the effect or the level left.

Series [2] can be described thus: Cytotoxicity against human HepG2 cells assessed as reduction in cell growth incubated for 3 days by MTT assay. The class given is toxicity, cell-based. The settings on record: time 3 day. Background: Formazan colour is commonly taken as a measure of viable cells.
Series [3] concerns Hepatitis B virus. As to the kind of experiment: Antiviral activity against Hepatitis B virus infected in human HepG2.2.15 cells assessed as inhibition of viral DNA replication measured for 9 days by FQ-PCR analysis. The class given is functional, organism-based. The settings on record: HepG2 2.2.15, 216 h.
Series [4] in a line: Acute toxicity in overnight fasted Kunming mouse assessed as side effects at 1.5 g/Kg, IG measured for 15 days. The settings on record: in vivo, po, 1500 mg/kg, 360 h, time 15 day.
Series [5] is described as follows: Acute toxicity in overnight fasted Kunming mouse assessed as change in body weight at 1.5 g/Kg, IG measured for 15 days. The settings on record: in vivo, po, 1500 mg/kg, 360 h, time 15 day.
Series [6] in a line: Acute toxicity in overnight fasted Kunming mouse assessed as animal survival at 1.5 g/Kg, IG measured for 15 days. The settings on record: in vivo, po, 1500 mg/kg, 360 h, time 15 day.
Series [7] is described as follows: Acute toxicity in overnight fasted Kunming mouse assessed as heart tissue damage at 1.5 g/Kg, IG measured on day 15. The settings on record: in vivo, po, 1500 mg/kg.
A short description of series [8]: Acute toxicity in overnight fasted Kunming mouse assessed as liver tissue damage at 1.5 g/Kg, IG measured on day 15. The class given is tissue-based. Particulars: in vivo, po, 1500 mg/kg.
Series [9] in a line: Acute toxicity in overnight fasted Kunming mouse assessed as spleen tissue damage at 1.5 g/Kg, IG measured on day 15. The class given is tissue-based. The settings on record: in vivo, po, 1500 mg/kg.
The nature of series [10]: Acute toxicity in overnight fasted Kunming mouse assessed as lung tissue damage at 1.5 g/Kg, IG measured on day 15. The class given is tissue-based. Particulars: in vivo, po, 1500 mg/kg.
A short description of series [11]: Acute toxicity in overnight fasted Kunming mouse assessed as kidney tissue damage at 1.5 g/Kg, IG measured on day 15. The class given is tissue-based. Particulars: in vivo, po, 1500 mg/kg.
For series [12], the system named is Hepatitis B virus. Nature of the series: Antiviral activity against Hepatitis B virus infected in duck assessed as log reduction in viral DNA replication in serum at 2.5 to 10 mg/kg, IG administered once daily for first 10 days followed by 10 mg/kg, IG administered for another 18 days. The class given is functional. Particulars: dose 2.5-10 mg/kg, time 28 day.

The test system of series [13] is Hepatitis B virus. As to the kind of experiment: Antiviral activity against Hepatitis B virus infected in duck assessed as log reduction in viral DNA replication in serum at 2.5 to 10 mg/kg, IG administered once daily for first 10 days followed by 20 mg/kg, IG administered for another 18 days. The class given is functional. Particulars: dose 2.5-20 mg/kg, time 28 day.

Series [14] can be described thus: Toxicity in duck assessed as animal survival at 2.5 to 10 mg/kg, IG administered once daily for first 10 days followed by 10 to 40 mg/kg, IG for another 18 days. The class given is organism-based. The settings on record: anas platyrhynchos, in vivo, po, 672 h, dose 2.5-40 mg/kg, time 28 day.
Series [15] in a line: Toxicity in duck assessed as body weight loss at 2.5 to 10 mg/kg, IG administered once daily for first 10 days followed by 10 to 40 mg/kg, IG for another 18 days. The class given is organism-based. Particulars: anas platyrhynchos, in vivo, po, 672 h, dose 2.5-40 mg/kg, time 28 day.
Series [16] is described as follows: Toxicity in duck assessed as body weight gain at 2.5 to 10 mg/kg, IG administered once daily for first 10 days followed by 10 to 40 mg/kg, IG for another 18 days. The class given is organism-based. The settings on record: anas platyrhynchos, in vivo, po, 672 h, dose 2.5-40 mg/kg, time 28 day.
Series [17] is described as follows: Toxicity in duck assessed as liver necrosis at 2.5 to 10 mg/kg, IG administered once daily for first 10 days followed by 10 to 40 mg/kg, IG for another 18 days by hematoxyin-eosin staining based light microscopic analysis. The class given is organism-based. Particulars: anas platyrhynchos, in vivo, po, 672 h, dose 2.5-40 mg/kg, time 28 day.
Series [18] is described as follows: Toxicity in duck assessed as liver hemorrhage at 2.5 to 10 mg/kg, IG administered once daily for first 10 days followed by 10 to 40 mg/kg, IG for another 18 days by hematoxyin-eosin staining based light microscopic analysis. The class given is organism-based. Particulars: anas platyrhynchos, in vivo, po, 672 h, dose 2.5-40 mg/kg, time 28 day.
Series [19] is described as follows: Toxicity in duck assessed as inflammatory response in liver at 2.5 to 10 mg/kg, IG administered once daily for first 10 days followed by 10 to 40 mg/kg, IG for another 18 days by hematoxyin-eosin staining based light microscopic analysis. The class given is organism-based. The settings on record: anas platyrhynchos, in vivo, po, 672 h, dose 2.5-40 mg/kg, time 28 day.

Series [20] is described as follows: Drug metabolism in Sprague-Dawley rat liver assessed as AUC(0 to t) of TFV-DP at 20 mg/kg, IG meaured upto 12 hrs by HPLC-MS/MS analysis. The class given is ADME, organism-based. The settings on record: in vivo, po.
The nature of series [21]: Metabolic stability in rat plasma assessed as half life measured upto 25 mins by HPLC analysis. The class given is ADME, cell-free.
Series [22] can be described thus: Metabolic stability in human plasma assessed as half life measured upto 24 hrs by HPLC analysis. The class given is ADME, cell-free.
The nature of series [23]: Metabolic stability in dog plasma assessed as half life measured upto 24 hrs by HPLC analysis. The class given is ADME, cell-free, Canis lupus familiaris.
For series [24], the system named is Hepatitis B virus. As to the kind of experiment: Antiviral activity against Hepatitis B virus infected in duck assessed as log reduction in viral DNA replication in serum at 2.5 to 10 mg/kg, IG administered once daily for first 10 days followed by 40 mg/kg, IG administered for another 18 days. The class given is functional. The settings on record: dose 2.5-40 mg/kg, time 28 day.

The structures appear in SMILES notation. Bounds are passed on as bounds.

What is called CC50 is the concentration that lowers cell viability or growth by half. By EC50 is commonly meant the concentration giving half of the maximal effect. As usually defined, the half-life is the time in which the quantity being followed falls by half. On to `Cc1ccccc1COP(=O)(CO[C@H](C)Cn1cnc2c(N)ncnc21)N[C@@H](C)C(=O)OC(C)C` (stereo in doubt; 1a), for which the Activity in [1] is 81.72%; in [4], “Non-Toxic”; in [5], “Non-Toxic”; in series [6], “Non-Toxic”; in [7], “Non-Toxic”; in series [8], “Non-Toxic”. Moreover, the Activity result in series [9] is “Non-Toxic”; in [10], “Non-Toxic”; in series [11] it was “Non-Toxic”; in series [12], 3; in [13] it was 3.6; in series [14], “Non-Toxic”. Also, the Activity entry in [15] is “Non-Toxic”; in series [16], “Toxic”; in series [17] it was “Non-Toxic”; in series [18] it was “Non-Toxic”; in series [19], “Non-Toxic”; in series [24], 2.9. Moreover, the CC50 at 72 h in [2] is more than 500 µM. The EC50 in [3] was 0.024 µM. In addition, the AUCt in series [20] was 781.6 ng·h/g. The half-life in series [21] is less than 5 min; in series [22], more than 24 h; in series [23], more than 24 h.

(Values after ChEMBL document CHEMBL5120914, “An O-Benzyl Phosphonamidate Prodrug of Tenofovir for the Treatment of Hepatitis B Virus Infection” (J Med Chem, 2022).)
